Here are results for seven molecules from paper PMC7848973, “In Vivo Efficacy and Metabolism of the Antimalarial Cycleanine and Improved In Vitro Antiplasmodial Activity of Semisynthetic Analogues” (Antimicrobial Agents and Chemotherapy, 2021).

Where two headings read alike, the source gives them in different places. Marks after values point to notes of the source that are not given here.

Data set [1] has as its system P. falciparum Dd2 chloroquine-resistant strain. Description: In vitro antiplasmodial activity, SYBR green I fluorescence assay. The format is cell-based, Plasmodium falciparum. As for the experimental part: Normalized fluorescence signals were measured against controls with 1% DMSO (100% growth) and after exposure to a supralethal concentration (10 μM) of chloroquine (0% growth). Determination of the 50% inhibitory concentration (IC50) was performed from a log concentration versus the mean normalized fluorescence signal curve using GraphPad Prism software (v5.0). Each biological replicate consisted of three technical repeats, with three independent biological replicates performed.

Data set [2] has as its system chloroquine-resistant P. falciparum strain W2. Conditions: cited from earlier work.
For data set [3], the system named is P. falciparum chloroquine-sensitive strain D6. The following applies: read-out: IC50 against P. falciparum strain D6; cited from earlier work.
Data set [4] deals with human oral epidermoid carcinoma (KB) cells. The arrangement: method as in PMID 9917283. The following applies: cited from earlier work.
Data set [5] deals with human ovarian epithelial (HOE) cells. Conditions: cited from earlier work.
The subject of data set [6] is HCT-116 human colon carcinoma cells. Conditions: cited from earlier work.
Data set [7] relates to Plasmodium berghei. Description: Prophylactic activity in P. berghei infection of mice. The format is in vivo. The following applies: prophylactic model; for Parasitemia level after infection for 72 h / MST: mean ± SEM, n = 6; for MST: over 30 days. On the procedure:
(§1) (i) Malaria parasite. Chloroquine-sensitive strains of P. berghei were sourced from the National Institute of Medical Research (NIMER), Yaba Lagos, Nigeria, and maintained by subpassage in mice.
(§2) (ii) Parasite inoculation. Each mouse was inoculated intraperitoneally with about 1 × 10^7 P. berghei parasitized erythrocytes in 0.2 ml of infected blood (5 × 10^7 P. berghei erythrocytes/ml) according to published procedure ([39]).
(§3) (iii) Experimental animals. Female and male Swiss albino mice (18 to 25 g) were obtained from the University of Uyo’s animal house. Before use, mice were kept in cages and acclimatized for 10 days. All mice were kept in cross-ventilated rooms at room temperature. The care and use of mice were performed in accordance with the National Institutes of Health Guide for the Care and Use of Laboratory Animals (1996). This investigation was approved by the University of Uyo’s Animal Ethics Committee.
(§4) (v) Drug administration. Cycleanine, chloroquine, and pyrimethamine were prepared in water and administered orally with the aid of a stainless metallic feeding cannula.
(vii) Prophylactic activity of cycleanine. The prophylactic activity of cycleanine was evaluated using a previously described method ([42], [43]). The mice were randomly divided into four groups of six mice per group. Groups 1 and 2 were given 25 and 50 mg/kg of cycleanine, respectively, group 3 was given 1.2 mg/kg of pyrimethamine (positive control), and group 4 was given 10 ml/kg of distilled water (negative control). Administration of cycleanine or the drug continued for three consecutive days. On the fourth day, the mice were inoculated with P. berghei. The parasitemia level was evaluated by blood smears after 3 days. The survival times (days) of the mice were recorded over a period of 30 days, and MST were calculated.

Data set [8] in a line: Acute median lethal dose (LD50) of cycleanine in mice. The format is in vivo. The following applies: 24 h, intraperitoneal. As for the experimental part: as §3
(iv) Determination of median lethal dose (LD50) of cycleanine. The median lethal dose (LD50) of cycleanine was determined using albino mice by the intraperitoneal (i.p.) route ([40]). Different doses of cycleanine (10 to 5,000 mg/kg) were intraperitoneally administered to groups of three mice each. The mice were monitored for manifestation of physical signs of toxicity, including decrease of motor activity, writhing, decrease of body/limb tone, weakness, and death. The number of deaths in each group within 24 h was recorded. The LD50 value was calculated as the geometrical means of the minimum dose producing 100% mortality and the maximum dose producing 0%.

The subject of data set [9] is Plasmodium berghei. Description: Suppressive activity during early P. berghei infection of mice. The format is in vivo. Conditions: suppressive model; for Parasitemia after infection for 96 h / MST: mean ± SEM, n = 6; for MST: over 30 days. As for the experimental part:
as §1, §2, §3, §4
(vi) Suppressive activity of cycleanine. The schizontocidal activity of cycleanine and chloroquine against early P. berghei infection in mice was measured according to an established protocol ([25], [41], [42]). On the first day, 20 to 24 mice were infected with the parasite and randomly separated into four groups. The mice in groups 1 and 2 were given 25 and 50 mg/kg of cycleanine, respectively, those in group 3 were given 5 mg/kg of chloroquine (positive control), and those in group 4 were given distilled water (10 ml/kg, negative control) for four consecutive days. Thin films were made from the tail blood on the fifth day. Parasitized erythrocytes were counted in stained films (Giemsa stain) under a microscope. The average suppression of parasitemia (%) was calculated as follows: average % parasitemia positive control−average % parasitemia negative control/average % parasitemia negative control×100
The MST (in days) of the mice in each group was determined over a period of 30 days.

The subject of data set [10] is Plasmodium berghei. Briefly: Curative activity during established P. berghei infection of mice. It is filed as in vivo. Conditions: curative model, n = 6; for MST: over 30 days. As for the experimental part:
as §1, §2, §3, §4
(viii) Curative activity of cycleanine. The curative activity of cycleanine was assessed according to a method described previously ([42], [44]). P. berghei was injected intraperitoneally into another 24 mice on the first day. Three days later, the mice were also separated into four groups of six mice per group. Groups 1 and 2 were administered different doses of cycleanine, 25 and 50 mg/kg, respectively, group 3 was given 5 mg/kg chloroquine (positive control), and group 4 was given 10 ml/kg distilled water (negative control). Cycleanine and chloroquine were given once a day for 5 days. Mouse tail blood samples were collected on each day, and Giemsa-stained thin smears were prepared to determine the parasitemia level. The MST of the mice in each group was determined over a period of 30 days.

Data set [11] deals with P. falciparum chloroquine-sensitive clone 3D7. Also on record: method as in PMID 26594753. The following applies: read-out: IC50 against P. falciparum chloroquine-sensitive clone 3D7; cited from earlier work.
Details of data set [12]: method as in earlier work. The following applies: mice; cited from earlier work.
The mark [13] stands for this setting: Plasmodium falciparum, DD2, chloroquine-resistant strain, mean ± SD, n = 3 independent biological repeats, read-out: IC50 against P. falciparum strain Dd2.
Where [14] appears, read: read-out: CC50 against HOE, human ovarian epithelial (HOE) cells.
[15] abbreviates: Plasmodium falciparum, DD2, read-out: IC50 against P. falciparum strain Dd2.
Where [16] appears, read: chloroquine-resistant strain, ref 18, read-out: IC50 against P. falciparum strain W2.
Setting [17] is: 25 mg/kg oral, mean ± SEM, 25 mg/kg.
[18] abbreviates: 50 mg/kg oral, mean ± SEM, 50 mg/kg.
Where [19] appears, read: chloroquine-resistant strain, ref 16, read-out: IC50 against P. falciparum strain W2.

For `COc1cc2c3c4c1Oc1cc5c(cc1O4)C(Cc1ccc(O)c(c1)Oc1ccc(cc1)CC3NCC2)N(C)CC5` (centres unmarked) [2′-Norcocsuline (3), 2′-norcocsuline], the results for the IC50 in data set [1] (setting [13]), in data set [2] (read-out: IC50 against chloroquine-resistant clone W2) and in data set [3] were 7 ± 1.6 µM, 0.248 µM and 0.048 µM, respectively. The “CC50 against cancer cell line KB” value in data set [4] is listed as 3.8^b μM. The CC50 in [5] (setting [14]) was 8 ± 0.2 µM.

Consider `C#CCNCc1c2c3c(c(OC)c1OC)Oc1ccc(cc1)C[C@H]1c4c(cc(OC)c(OC)c4Oc4ccc(cc4)C[C@@H]3N(C)CC2)CCN1C` [5-[(Propargylamino)methyl]cycleanine (5), 5-[(Propargylamino)methyl]cycleanine], for which, in data set [1] (setting [13]), the IC50 was found to be 1.8 ± 0.2 µM. Moreover, in data set [5] (setting [14]), the CC50 was 32 ± 1.6 µM.

`COc1cc2c3c(c1O)Oc1ccc(cc1)C[C@@H]1c4c(cc(OC)c(O)c4Oc4ccc(cc4)C[C@H]3N(C)CC2)CCN1C` [Isochondodendrine (2), isochondodendrine]: the IC50 is 6.1 ± 1.3 µM in [1] (setting [15]) and 0.2 µM in data set [2] (setting [16]). In addition, the CC50 in [6] is 29 µM; in data set [5], 10.5 ± 1.2 µM.

As to `CCc1nc(N)nc(N)c1-c1ccc(Cl)cc1` [Pyrimethamine, reference compound], in the data set with Plasmodium berghei [7] (1.2 mg/kg per day oral), the “Suppression of parasitemia level after infection for 72 h” value turned out to be 76.2%, the “Parasitemia level after infection for 72 h” value was 4.8 ± 1.1^b % and the MST is 29.8 ± 0.2^b days.

Regarding cycleanine, the IC50 is 17.7 ± 2 µM in data set [1] (chloroquine-resistant strain, mean ± SD, n = 3 independent biological repeats, read-out: IC50 against P. falciparum strain Dd2); 0.25 µM in data set [2] (setting [19]); 4.5 µM in data set [2] (setting [16]); 0.07 µM in [3]; 0.08 µM in data set [11]. In addition, in data set [8], the “Acute median lethal dose (LD50)” value was 4500 mg/kg. In addition, the “Suppression of parasitemia at 96 h” value with Plasmodium berghei [9] (25 mg/kg per day oral) is recorded as 44.7%; in the data set with Plasmodium berghei [9] (50 mg/kg per day oral), 86.5%. For the same molecule, the “Parasitemia after infection for 96 h” value is on record as 15.7 ± 1.8^b % in the data set on Plasmodium berghei [9] (25 mg/kg per day oral) and 3.8 ± 0.7^b % with Plasmodium berghei [9] (50 mg/kg per day oral). In addition, the MST in the data set on Plasmodium berghei [9] (25 mg/kg per day oral) was 24.7 ± 1.1^b days; with Plasmodium berghei [9] (50 mg/kg per day oral), 28.2 ± 0.9^b days; with Plasmodium berghei [7] (25 mg/kg per day oral) it was 23.0 ± 0.6^b days; in the data set on Plasmodium berghei [7] (50 mg/kg per day oral), 24.5 ± 0.6^b days; in the data set on Plasmodium berghei [10] (setting [17]), 21 days; in the data set with Plasmodium berghei [10] (setting [18]) it was 25 days. The “Suppression of parasitemia level after infection for 72 h” value turned out to be 43.4% in the data set with Plasmodium berghei [7] (25 mg/kg per day oral) and 59.0% with Plasmodium berghei [7] (50 mg/kg per day oral). The “Parasitemia level after infection for 72 h” value is given as 11.5 ± 0.9^b % with Plasmodium berghei [7] (25 mg/kg per day oral) and 8.3 ± 1.0^b % in the data set on Plasmodium berghei [7] (50 mg/kg per day oral). Also, the “Parasitaemia Day 3” value is recorded as 12.7 ± 1.7% in the data set with Plasmodium berghei [10] (25 mg/kg oral, mean ± SEM) and 15.5 ± 0.9% in the data set with Plasmodium berghei [10] (50 mg/kg oral, mean ± SEM). Besides, the “Parasitaemia Day 5” value is recorded as 13.3% in the data set on Plasmodium berghei [10] (setting [17]) and 10.5% with Plasmodium berghei [10] (setting [18]). In addition, in the data set with Plasmodium berghei [10] (50 mg/kg oral, mean ± SEM), the “Parasitaemia Day 6” value turned out to be 6.0 ± 1.0%. In addition, the “Parasitaemia Day 7” value with Plasmodium berghei [10] (50 mg/kg oral, mean ± SEM) is 3.7 ± 1.1%. Moreover, the “CC50 against cancer cell line KB” value in data set [4] was over 33.7 µM. Further, the LD50 in data set [12] is 1100 mg/kg. The CC50 in data set [6] (read-out: CC50 against cancer cell line HCT, HCT-116 human colon carcinoma cells) is 531 µM; in [5] (setting [14]) it was 35 ± 0.1 µM.

As to `COc1cc2c3c(c1OC)Oc1ccc(cc1)C[C@H]1c4c(c(CN(C)C)c(OC)c(OC)c4Oc4ccc(cc4)C[C@@H]3N(C)CC2)CCN1C` [5-[(Dimethylamino)methyl]cycleanine (4), 5-[(Dimethylamino)methyl]cycleanine], the IC50 in data set [1] (setting [13]) amounted to 0.7 ± 0.1 µM. For the same molecule, the CC50 in data set [5] (setting [14]) was 10 ± 0.2 µM.

Consider `CCN(CC)CCCC(C)Nc1ccnc2cc(Cl)ccc12` (centres unmarked) [Chloroquine, reference compound], for which the IC50 in [1] (setting [15]) is 0.18 ± 0.03 µM. Moreover, in the data set with Plasmodium berghei [9] (5 mg/kg per day oral), the “Suppression of parasitemia at 96 h” value worked out at 94.0%, the “Parasitemia after infection for 96 h” value is on record as 2.0 ± 0.8^b % and the MST is recorded as 30.0 ± 0.0^b days. In the data set on Plasmodium berghei [10] (5 mg/kg oral, mean ± SEM), the “Parasitaemia Day 3” value was determined as 12.4 ± 0.5% and the “Parasitaemia Day 4” value is given as 2.1 ± 0.2%. In the data set on Plasmodium berghei [10] (5 mg/kg oral), the “Parasitaemia Day 6” value is given as 0.0% and the “Parasitaemia Day 7” value came out at 0.0%. Besides, the “Parasitaemia Day 5” value in the data set on Plasmodium berghei [10] (5 mg/kg oral, 5 mg/kg) amounted to 0%. The molecule further yielded an MST in the data set on Plasmodium berghei [10] (5 mg/kg oral, mean ± SEM, 5 mg/kg) of 30 days. Besides, the IC50 in data set [2] (setting [19]) was 0.135 µM. In addition, in [3], the IC50 is 0.006 µM. Further, the “CC50 against cancer cell line KB” value in data set [4] is 33.7^b μM.

As usually defined, the IC50 is the concentration that gives 50% inhibition. What is called CC50 is the concentration at which the toxic effect on the cells reaches its halfway point. In general, LD50 refers to the dose expected to kill half of the subjects tested.
